Measured values from patent US20030181390A1, “Amino acid conjugates providing for sustained systemic concentrations of GABA analogues” (priority 2002, published 2003).
Where two headings read alike, the source gives them in different places.

Assays:
[1] = Caco-2 homogenate S9 stability / release of gabapentin; assay type: in vitro ADME; details: incubation with Caco-2 homogenate for 1 hour
Experimental: The stability of aminoacyl-gabapentin conjugates was evaluated by incubating the conjugates in the various tissue and enzyme-containing preparations listed in Table 1 below.
Tissue homogenates and plasma samples were obtained from commercial sources (Pel-Freez Biologicals, Rogers, Ariz., and GenTest Corporation, Woburn, Mass.). Stability of prodrugs toward the specific enzyme aminopeptidase was also evaluated by incubation with the purified enzyme. Experimental conditions used for the in vitro studies were as follows. Each preparation was incubated with test compound at 37° C. for one hour. Aliquots (50 μL) were removed at 0, 30, and 60 min and quenched with 0.1% trifluoroacetic acid in acetonitrile. Samples were then centrifuged and analyzed for the presence of prodrug and released gabapentin by LC/MS/MS as described below.
Concentrations of prodrug or gabapentin in tissue extracts were determined by direct injection onto an API 2000 LC/MS/MS equipped with an Agilent 1100 binary pump and autosampler. Separation was achieved using a 3.5 μm Zorbax Ellipse XDB-C8 4.4×150 mm column heated to 45° C. during the analysis. The mobile phases were: 0.1% formic acid in water (A) and 0.1% formic acid in acetonitrile (B). The gradient condition was: 2% B for 0.5 min, increasing to 90% B in 2.0 min, maintained for 2.5 min and returning to 2% B for 2 min. A TurboIonSpray source was used on the API 2000. The analysis was performed in the positive ion mode and MRM transitions of 172.0/137.2 were used in the analysis of gabapentin (2). Ten microliters of the sample extracts were injected. Peaks were integrated using Analyst quantitation software. The method was linear for (2) over the concentration range 0.002 to 2.5 μg/mL respectively.
The stability of gabapentin-containing prodrugs to Caco-2 homogenates was evaluated as follows:
Caco-2 Homogenate S9 Stability: Caco-2 cells were grown for 21 days prior to harvesting. Culture medium was removed and cell monolayers were rinsed and scraped off into ice-cold 10 mM sodium phosphate/0.15 M potassium chloride, pH 7.4. Cells were lysed by sonication at 4° C. using a probe sonicator. Lysed cells were then transferred into 1.5 mL centrifuge vials and centrifuged at 9000 g for 20 min at 4° C. The resulting supernatant (Caco-2 cell homogenate S9 fraction) was aliquoted into 0.5 mL vials and stored at −80° C. until used.
For stability studies, prodrug (5 μM) was incubated in Caco-2 homogenate S9 fraction (0.5 mg protein per mL) for 60 min at 37° C. Concentrations of intact prodrug and released drug were determined at zero time and 60 minutes using LC/MS/MS.

in vivo [2] = details: rat; for Cmax for prodrug (Cmax PD) in plasma: single oral dose of prodrug, 25 mg-equivalents of gabapentin per kg
Experimental: The pharmacokinetics of the prodrugs prepared in Examples 1 and 3 were examined in rats. […] Animals were fasted overnight prior to dosing and until 4 hours post-dosing. Serial blood samples were obtained over 24 hours following dosing and blood was processed for plasma by centrifugation. Plasma samples were stored at −80° C. until analyzed.
Plasma (50 μL) was precipitated by addition of […] of methanol and supernatant was injected directly onto the LC/MS/MS system. […] Following oral administration of gabapentin prodrugs, concentrations of prodrug and gabapentin in plasma were monitored over 24 hours.

[3] = rat; for fraction of prodrug absorbed intact following oral administration: oral and i.v. dosing of prodrug
[4] = monkey, sodium salt in water, 10 mg-equivalents of gabapentin per kg
[5] = rat, intracolonic, sodium salt, dose equivalent to 25 mg of gabapentin per kg
Experimental: Rats were obtained commercially and were pre-cannulated in the both the ascending colon and the jugular vein. Animals were conscious at the time of the experiment. All animals were fasted overnight and until 4 hours post-dosing. […] Blood samples (0.5 mL) were obtained from the jugular cannula at intervals over 8 hours and were quenched immediately by addition of acetonitrile/methanol to prevent further conversion of the prodrug.

[6] = monkey; for AUC for gabapentin (AUC G) / Cmax for gabapentin (Cmax G) / increase in gabapentin exposure (as measured by AUC) for a 7.5-fold increase in dose: oral; for increase in gabapentin exposure (as measured by AUC) for a 7.5-fold increase in dose: 10 to 75 mg-eq/kg
Experimental: (§6) The prodrug was administered orally to four adult male monkeys (approximate body weight of 6.5 kg) via an oral nasogastric tubeas solutions in water or PEG 400. The dose was 10 or 75 mg-equivalents of gabapentin per kg body weight. Animals were fasted overnight before the study and for 4 hours post-dosing. Blood samples (1.0 mL) were obtained via femoral or cephalic venipuncture at intervals over 48 hours after oral dosing. Blood was processed immediately for plasma and plasma was frozen at −80° C. until analyzed. […] Oral bioavailability was determined by comparison of area under the gabapentin concentration versus time curve (AUC) following oral administration of prodrug or intravenous administration of an equimolar dose of gabapentin hydrochloride.

PEPT2 = details: tested at 1 mM on oocytes expressing PEPT2; normalised to 1 mM glycyl-sarcosine
Experimental: (§1) Rat and human PEPT1 and PEPT2 expressing CHO cell lines were prepared as described in PCT Application WO01/20331. Gabapentin-containing dipeptides were evaluated for interaction with the peptide transporters using a radiolabeled substrate uptake assay in a competitive inhibition format, as described in PCT Application WO01/20331. Transport-induced currents were also measured in Xenopus oocytes transfected with rat and human PEPT1 and PEPT2.
(§2) (b) Analysis of Electrogenic Transport in Xenopus oocytes
(§3) RNA preparation: Rat and human PEPT1 and PEPT2 transporter cDNAs were subcloned into a modified pGEM plasmid that contains 5′ and 3′ untranslated sequences from the Xenopus β-actin gene. These sequences increase RNA stability and protein expression. Plasmid cDNA was linearized and used as template for in vitro transcription (Epicentre Technologies transcription kit, 4:1 methylated:non-methylated GTP).
(§4) Xenopus oocyte isolation. Xenopus laevis frogs were anesthetized by immersion in Tricaine ([…] in deionized water) for 15 min. […]
(§5) Electrophysiology measurements. Transport currents were measured 2-14 days after injection, using a standard two-electrode electrophysiology set-up (Geneclamp 500 amplifier, Digidata 1320/PCLAMP software and ADInstruments hardware and software were used for signal acquisition).

PEPT1 = details: tested at 1 mM on oocytes expressing PEPT1; normalised to 1 mM glycyl-sarcosine
Experimental: as §1, §2, §3, §4, §5

in vivo [7] = details: male, monkey, plasma, po
Experimental: as §6

[8] = man, cited from earlier work
[9] = male, Sprague-Dawley, plasma, po, 25 mg/kg

Compound: N[C@@H](Cc1ccc(C(F)(F)F)cc1)C(=O)NCC1(CC(=O)O)CCCCC1 [1aa, L-4-Trifluoromethylphenylalanine-Gabapentin]
- % of prodrug surviving intact [1]: 97%
- Cmax for prodrug (Cmax PD) in plasma (in vivo [2]): 30000 ng/mL

Compound: N[C@@H](Cc1ccc(Br)cc1)C(=O)NCC1(CC(=O)O)CCCCC1 [1ah, L-4-Bromophenylalanine-Gabapentin]
- % of prodrug surviving intact [1]: 79%
- fraction of prodrug absorbed intact following oral administration [3]: about 60%
- oral bioavailability of gabapentin provided by prodrug ([3]; oral dosing of prodrug): about 53%
- AUC for gabapentin (AUC G) ([4]; oral): 29100 ± 3500 ng·h/mL
- AUC for prodrug (AUC PD) ([4]; oral): 18900 ± 6500 ng·h/mL
- Cmax for gabapentin (Cmax G) ([4]; oral): 3800 ± 1100 ng/mL
- CmaxPH (Cmax for prodrug) ([4]; oral): 14900 ± 5300 ng/mL
- oral bioavailability as gabapentin (F) [4]: 49.1±6.8%
- oral bioavailability (F) as gabapentin (in vivo [2]; oral 25 mg/kg (or 25 mg-equivalents of gabapentin per kg) vs intravenous gabapentin): 53%
- maximum plasma concentration (Cmax) of gabapentin (in vivo [2]; single oral dose 25 mg/kg (or 25 mg-equivalents of gabapentin per kg)): 6100 ng/mL
- Cmax for prodrug (Cmax PD) in plasma (in vivo [2]): 103000 ng/mL
- area under the gabapentin plasma concentration vs. time curve relative to colonic administration of gabapentin itself [5]: > 3 fold
- maximum plasma concentration of gabapentin relative to colonic administration of gabapentin itself [5]: > 3 fold

Compound: N#Cc1cccc(C[C@H](N)C(=O)NCC2(CC(=O)O)CCCCC2)c1 [1al, L-3-Cyanophenylalanine-Gabapentin]
- % of prodrug surviving intact [1]: 46%
- Cmax for prodrug (Cmax PD) in plasma (in vivo [2]): 600 ng/mL

Compound: N#Cc1ccc(C[C@H](N)C(=O)NCC2(CC(=O)O)CCCCC2)cc1 [1am, L-4-Cyanophenylalanine-Gabapentin]
- % of prodrug surviving intact [1]: 90%
- Cmax for prodrug (Cmax PD) in plasma (in vivo [2]): 22400 ng/mL

Compound: N[C@@H](Cc1cc(F)cc(F)c1)C(=O)NCC1(CC(=O)O)CCCCC1 [1ao, L-3,5-Difluorophenylalanine-Gabapentin]
- % of prodrug surviving intact [1]: 48%
- Cmax for prodrug (Cmax PD) in plasma (in vivo [2]): 2900 ng/mL

Compound: NC(Cc1ccc(F)cc1F)C(=O)NCC1(CC(=O)O)CCCCC1 [1ap, D, L-2,4-Difluorophenylalanine-Gabapentin]
- % of prodrug surviving intact [1]: 90%
- Cmax for prodrug (Cmax PD) in plasma (in vivo [2]): 278000 ng/mL

Compound: N[C@@H](CO)C(=O)NCC1(CC(=O)O)CCCCC1 [1ax, L-Serine-Gabapentin]
- fraction of prodrug absorbed intact following oral administration [3]: 15-20%
- oral bioavailability as gabapentin (F) ([6]; 10 mg-eq/kg): 41.5±12.2%
- oral bioavailability as gabapentin (F) ([6]; 75 mg-eq/kg): 28.1±1.1%
- AUC for gabapentin (AUC G) ([6]; 10 mg-eq/kg): 24700 ± 7300 ng·h/mL
- Cmax for gabapentin (Cmax G) ([6]; 10 mg-eq/kg): 3700 ± 1100 ng/mL
- AUC for gabapentin (AUC G) ([6]; 75 mg-eq/kg): 125000 ± 5000 ng·h/mL
- Cmax for gabapentin (Cmax G) ([6]; 75 mg-eq/kg): 14500 ± 1600 ng/mL
- increase in gabapentin exposure (as measured by AUC) for a 7.5-fold increase in dose [6]: 5.1 fold

Compound: N[C@@H](Cc1cccc2ccccc12)C(=O)NCC1(CC(=O)O)CCCCC1 [1l, L-1-Naphthylalanine-Gabapentin]
- % of prodrug surviving intact [1]: 29%
- Cmax for prodrug (Cmax PD) in plasma (in vivo [2]): 500 ng/mL

Compound: CC(C)C[C@H](CNC(=O)[C@@H](N)Cc1ccc(Br)cc1)CC(=O)O [compound 5, L-4-Bromophenylalanine-Pregabalin]
- PEPT-specific current, % of Imax for Gly-Sar (PEPT2): at least 5 % of Imax for Gly-Sar
- PEPT-specific current, % of Imax for Gly-Sar (PEPT1): at least 5 % of Imax for Gly-Sar

Compound: NCC1(CC(=O)O)CCCCC1 [gabapentin]
- AUC (in vivo [7]; 10 mg/kg): 32100 ± 10400 ng·h/mL
- Cmax (in vivo [7]; 10 mg/kg): 3700 ± 1600 ng/mL
- bioavailability (in vivo [7]; 10 mg/kg): 53.9 ± 17.3%
- AUC (in vivo [7]; 75 mg/kg): 102000 ± 4900 ng·h/mL
- Cmax (in vivo [7]; 75 mg/kg): 10800 ± 1300 ng/mL
- bioavailability (in vivo [7]; 75 mg/kg): 22.9 ± 1.1%
- Cmax (in vivo [2]; [9]): 10300 ng/mL
- half-life (in vivo [2]; [9]): 2.4 ± 0.5 h
- oral bioavailability ([8]; dose of 300 mg): about 60%
- oral bioavailability ([8]; dose of 1600 mg): about 35%
- increase in gabapentin exposure (as measured by AUC) for a 7.5-fold increase in dose [6]: 3.2 fold

Compound: L-Tyrosine-(O-2-Bromobenzyloxycarbonyl)-Gabapentin [4d]
- % of prodrug surviving intact [1]: 3%
